{"source": "patent US20060167098A1", "about": "“Method for the treatment of diseases linked to an accumulation of triglycerides and cholesterol” (Institut National De La Sante ET De LA Recherche Medicale …, priority 2003, published 2006)", "type_in_all_cases": "in vivo", "key": {"[1]": {"assay": "Liver histology, liver triglycerides and ALT in ob/ob mice treated for 4 months, not fasted", "conditions": "for plasma alanine aminotransferase (ALT): after 4 months", "experimental": "Total lipids and triglycerides in the liver of animals were assessed according to a procedure partially reported by (Letteron P., Fromenty B., Terris B., Degott C., Pessayre D., 1996, J. Hepatol. 24 : 200-208). Briefly, after killing of the animals, livers were removed and homogenized in sterile water. Hepatic lipids were thus extracted by a mixture of chloroform and methanol (2/1; v/v). After removal of the aqueous phase, the organic phase (chloroform containing the lipids) was evaporated and the amount of lipids was determined by gravimetry. Lipids were subsequently resuspended in isopropanol (final concentration, ca. 10 mg/mL). After removal of the phopholipids by using aluminum hydroxide hydrate, triglycerides were determined colorimetrically by using periodate and the Nash's reagent (containing acetylacetone, ammonium acetate and isopropanol). The reaction generates diacetyldihydrolutidine which is assayed by spectrophotometry (λ=410 nm).\n(§1) Plasma HDL-cholesterol and alanine aminotransferase (ALT) were measured on an automatic analyser (Olympus AU400®) with commercial kits (Olympus Diagnostica GmbH, references OSR6187 and OSR6107, respectively).\n(§2) Finally, liver histology was performed according to regular procedure. Steatosis and fibrosis were assessed thanks to the Oil red O and Masson's trichrome stains, respectively, whereas necrosis and inflammation were determined thanks to the HPS (Hematoxylin-Phloxin-Saffron) stain, or the HE (Hematoxylin-Eosin) stain. In one experiment, perisinusoidal fibrosis was assessed with the Sirius Red stain.\nIn a second series of investigations, liver histology was studied in ob/ob mice treated for 4 months with β-aminoisobutyric acid, administered either at the usual dose (100 mg/kg/day) or at a higher dose (500 mg/kg/day). In this experiment, liver examination was performed in mice not submitted to a fasting period before sacrifice. The number of investigated animals were 6, 7 and 8, respectively in the control group and in the groups treated with 100 and 500 mg/kg/day of β-aminoisobutyric acid."}, "[2]": {"assay": "Body fat mass by DEXA in Swiss (lean) mice, standard diet, fasted 48 hours before measurement", "conditions": "for decrease of body fat mass: 100 mg/kg/day in drinking water, vs control; for decrease of body fat mass / body fat mass: fasted 48 h; for body fat mass: mean±SEM", "description": "Six to 8 weeks old male (Crl:CD-1(ICR)BR) Swiss mice, and six to ten weeks old male RjOrl Swiss mice (i.e. lean mice) weighing 28 and 32 grams were purchased from Dépré (Saint Doulchard, France). Ten to 12 weeks old ob/ob male (C57BL/6-ob) mice (i.e. obese mice), weighing 40 to 44 grams were purchased from Janvier (Le-Genest-St-Isle, France). In one experiment, younger ob/ob mice (5-6 weeks old) weighing 25-26 grams were also studied. In genetically obese ob/ob mice, a mutation on the gene of leptin prevents the normal production of this hormone, thus increasing appetite and decreasing energy consumption (Friedman J. M., Halaas J. L., 1998, Nature 395 : 763-770). […] The animals were acclimatized for one to two weeks before the start of experiments.\nD,L-β-Aminoisobutyric acid (BAIBA) was purchased from Sigma-Aldrich. BAIBA has been administered in drinking water at the dose of 100 mg/kg/day or 500 mg/kg/day for 6 weeks, 2 months or 4 months according to the experiments.\nThe in vivo determination of body fat mass in anesthetized mice has been performed by “DEXA” (Dual Energy X-ray Absorptiometry) (Pietriobelli A., Formica C., Wang Z., Heymsfield S. B., 1996, Am. J. Physiol. 271 (Endocrinol. Metab. 34): E941-E951)). […] It is noteworthy that DEXA also gives for each investigated animal its lean mass that is the total amount of water and proteins (in grams) in the body (excluding the head). Therefore, for a given animal, DEXA allows the determination of the percentage of body fat which is its body fat mass divided by the sum of its body lean and fat masses (fat mass/(lean mass+fat mass)). The “DEXA” apparatus was a Piximus® from Lunar Corporation (Madison, Wis.). Mice were anesthetized thanks to a mixture of xylazine and ketamine.\nProcedure 2: the animals were fasted for 48 hours before DEXA measurements which have been performed 2 weeks (T2) and 6 weeks (T6) after starting the treatment. In this procedure, DEXA measurement before the beginning of treatment has not been performed. Comparisons of the different parameters (e.g. fat mass, body weight) between both groups were performed at T2 and at T6.\nIn a first series of experiments, the effects of 100 mg/kg/day of β-aminoisobutyric acid (BAIBA) on body fat were investigated in Swiss (lean) mice fed with a standard diet (A04 chow) and fasted for 48 hours before DEXA measurements. Mice were 6 to 8 weeks old at the beginning of the experiment. DEXA was performed twice after the initiation of the treatment. In this experiment, BAIBA decreased body fat mass by 31% and 25%, respectively after 2 and 6 weeks of treatment. The results in FIG. 1 indicate that: • after 2 weeks, body fat mass was 2.63±0.23 and 1.80±0.11 grams, respectively in control mice (n=7) and mice receiving BAIBA (n=7); • after 6 weeks, body fat mass was 3.40±0.27 and 2.56±0.32 grams, respectively in control mice and mice receiving BAIBA."}, "[3]": {"assay": "Liver histology in ob/ob mice, first series (48-hr fast)", "conditions": "standard diet", "experimental": "as §1, §2\nLiver histology was first examined in ob/ob mice fed with standard diet receiving (11 mice) or not (10 mice) β-aminoisobutyric acid in the drinking water. In this experiment, mice were submitted to a 48-hr period of fast before killing and liver examination."}}}
{"smiles": "CC(CN)C(=O)O", "note": "(racemic) [BAIBA, D,L-β-Aminoisobutyric acid]", "values": [{"measurement": "liver triglycerides", "setting": "[1]; 100 mg/kg/day, 4 months", "value": "721±16 mg/g of lipids"}, {"measurement": "mice with inflammation", "setting": "[1]; 100 mg/kg/day, 4 months", "value": 43, "unit": "%"}, {"measurement": "mice with necrosis", "setting": "[1]; 100 mg/kg/day, 4 months", "value": 43, "unit": "%"}, {"measurement": "mice with perisinusoidal fibrosis", "setting": "[1]; 100 mg/kg/day, 4 months", "value": 29, "unit": "%"}, {"measurement": "mice with portal or perivenular fibrosis", "setting": "[1]; 100 mg/kg/day, 4 months", "value": 29, "unit": "%"}, {"measurement": "plasma alanine aminotransferase (ALT)", "setting": "[1]; 100 mg/kg/day", "value": "290±61", "unit": "U/L"}, {"measurement": "liver triglycerides", "setting": "[1]; 500 mg/kg/day, 4 months", "value": "707±29 mg/g of lipids"}, {"measurement": "plasma alanine aminotransferase (ALT)", "setting": "[1]; 500 mg/kg/day", "value": "258±27", "unit": "U/L"}, {"measurement": "extent of steatosis vs control", "setting": "[1]; 100 and 500 mg/kg/day, 4 months, not fasted", "value": "about the same extent"}, {"measurement": "decrease of body fat mass", "setting": "[2]; after 2 weeks", "value": 31, "unit": "%"}, {"measurement": "decrease of body fat mass", "setting": "[2]; after 6 weeks", "value": 25, "unit": "%"}, {"measurement": "body weight vs control mice", "setting": "[2]; 100 mg/kg/day, after 2 and 6 weeks", "value": "not significantly different"}, {"measurement": "body fat mass", "setting": "[2]; 100 mg/kg/day, after 2 weeks", "value": "1.80±0.11", "unit": "grams"}, {"measurement": "body fat mass", "setting": "[2]; 100 mg/kg/day, after 6 weeks", "value": "2.56±0.32", "unit": "grams"}, {"measurement": "animals with inflammation", "setting": "[3]", "value": 63, "unit": "%"}, {"measurement": "animals with necrosis", "setting": "[3]", "value": 63, "unit": "%"}, {"measurement": "animals with perisinusoidal fibrosis", "setting": "[3]", "value": 45, "unit": "%"}, {"measurement": "plasma alanine aminotransferase", "setting": "[3]", "value": "not decreased"}, {"measurement": "mice with between 90 and 100% of fat-laden hepatocytes", "setting": "[3]; 11 treated mice", "value": 27, "unit": "%"}]}
